For the test, the target named is T1, glycerol dehydrogenase (GlyDH).
T1 construct: His-tagged, produced and purified in house (details only in SI); multimeric zinc metalloenzyme; free enzyme
In words: NADH formation at […] nm, DHA dose series. It is filed as biochemical. To be noted: free enzyme; product inhibition; standard assay 100 mM glycerol, 2.5 mM NAD+, 100 mM phosphate pH 7.0, 30 °C.

Structures are written as SMILES.

By IC50 is commonly meant the concentration that inhibits the measured activity by half.

The molecule `O=C(CO)CO` [DHA, dihydroxyacetone] gave an IC50 of 330 µM.

(Values after PMC12801976, “Enzyme-Powered CO2 Utilization: A Bifunctional Immobilized Biocatalyst for Intensified CCU of Industrial Feedstocks to High-Value Chemicals” (ACS Sustainable Chemistry & Engineering, 2025).)
